Results on 1 compound are retold here after patent EP1927378A1, “Hair-treatment compositions comprising quercetin and use thereof to revitalize hair” (Henkel Kommanditgesellschaft auf Aktien, priority 2006, dated 2008).

The structures appear in SMILES notation.

What all share (format): cell-based
In assay [1] the test system is hHa3-I. Briefly: Hair keratin expression by quantitative real-time PCR in organotypic cell cultures: hHa3-I. As to conditions: 88 µM, 24 h after application. From the text:
(§1) Hepatocyte Growth Factor (HGF) und Keratinocyte Growth Factor (KGF) sind wichtige Wachstumsfaktoren, die von den dermalen Papillenzellen synthetisiert werden. Im Speziellen stimuliert HGF das Follikelwachstum und KGF die Keratinozytenproliferation. Entsprechend werden HGF und KGF in der Wachstumsphase vermehrt exprimiert. Diesen Eigenschaften gegenüber steht die Expression von IGFBP-3. Dieses Genprodukt führen zu einer Verschiebung des Zyklus von der Wachstums- zur Regressionsphase. […] Die differentielle Genexpression wurde mittels quantitatitiver RT-PCR (Reverse-Transkription Polymerase Kettenreaktion) bestimmt. […] Zur Quantifizierung der Genexpression wird die unbehandelte Kontrolle gleich 1 gesetzt und die Expression der zu bestimmenden Gene darauf bezogen (x-fache Expression). […]
(§2) Die Festigkeit der Haare und die Haarstruktur ist im Wesentlichen von der Zusammensetzung spezieller haarspezifischer Strukturproteine abhängig, den Haarkeratinen. […] Die Expression verschiedener Haarkeratine organotypischen Modellen kann mit Hilfe des in Beispiel 8 beschriebenen quantitativen Real-Time-PCR-Verfahrens untersucht werden. Zur Quantifizierung der Genexpression wird die Lösungsmittelkontrolle gleich 1 gesetzt und die Expression der zu bestimmenden Gene darauf bezogen (x-fache Expression). […]
On the technique in general: Real-time PCR tracks product formation cycle by cycle.

The subject of assay [2] is KGF. As to the kind of experiment: KGF release into medium (ELISA) from dermal papilla cells. The settings on record: for Relative Ausschüttung von KGF, Mittelwert [%]: 24 h, untreated sample = 100, spread in brackets. How it is done:
Der Keratinozyten Wachstumsfaktor Factor (KGF) ist ein äußerst wichtiger Regulator des Haars. Bei einer potentiell wachstumsfördernden und das Haar stärkenden Aktivsubstanz kann von einer Steigerung der ins Medium ausgeschütteten Faktoren ausgegangen werden. Die Ausschüttung von KGF kann mit Hilfe von kommerziell erhältlichen ELISA-Kits quantifiziert werden. Dazu wurden die dermalen Papillenzellen über 24 Stunden mit Dihydroquercetin in der Konzentration von 8,8 und 88 µM (entspricht Extrakt der Sibirischen Lerche von 0,003% und 0,0003%) inkubiert und die Konzentration des Wachstumsfaktors im Medium in beschriebener Weise quantifiziert. Tabelle 3: Relative Ausschüttung von KGF in [%] nach Behandlung der dermalen Papillenzellen im Vergleich zur unbehandelten Probe.
On the technique in general: In an ELISA, binding on a coated surface is turned into a signal by an enzyme label.

The subject of assay [3] is IGFBP3. As to the kind of experiment: Differential gene expression by quantitative RT-PCR in dermal papilla cells: IGFBP3. The settings on record: for Expression IGFBP3, Mittelwert: 24 h, untreated control = 1, spread in brackets. From the text: (§3) Hepatocyte Growth Factor (HGF) und Keratinocyte Growth Factor (KGF) sind wichtige Wachstumsfaktoren, die von den dermalen Papillenzellen synthetisiert werden. Im Speziellen stimuliert HGF das Follikelwachstum und KGF die Keratinozytenproliferation. Entsprechend werden HGF und KGF in der Wachstumsphase vermehrt exprimiert. Diesen Eigenschaften gegenüber steht die Expression von IGFBP-3. Dieses Genprodukt führen zu einer Verschiebung des Zyklus von der Wachstums- zur Regressionsphase. Nach Applikation von Substanzen, die Effekte am biologisch aktiven Teil des Haares hervorrufen, könnte die Bestimmung der Veränderungen der Expression dieser Gene Aussagen über Haarwuchsstimulantien oder -inhibitoren liefern. Die differentielle Genexpression wurde mittels quantitatitiver RT-PCR (Reverse-Transkription Polymerase Kettenreaktion) bestimmt. Nach Anzucht der dermalen Papillenzellen wurden diese für 24 h mit Dihydroquercetin in der Konzentration von 8,8 und 88 µM (entspricht Extrakt der Sibirischen Lerche von 0,003% und 0,0003%) inkubiert. Zur Durchführung der PCR wird zunächst mit Hilfe des RNeasy Mini Kits der Fa. Qiagen die RNA aus den dermalen Papillenzellen isoliert und mittels reverser Transkription in cDNA umgeschrieben. Bei der anschließenden PCR Reaktion, die mit Hilfe genspezifischer Primer für die jeweiligen haarrelevanten Gene durchgeführt wird und die der Amplifikation der gesuchten Genabschnitte dient, wird die Bildung der PCR-Produkte online über ein Fluoreszenzsignal detektiert. Das Fluoreszenzsignal ist dabei proportional zur Menge des gebildeten PCR-Produktes. Je stärker die Expression eines bestimmten Gens ist, desto größer ist die Menge an gebildetem PCR-Produkt und um so höher ist das Fluoreszenzsignal. Zur Quantifizierung der Genexpression wird die unbehandelte Kontrolle gleich 1 gesetzt und die Expression der zu bestimmenden Gene darauf bezogen (x-fache Expression). Dabei werden Werte, die größer/gleich der 2fachen Expression oder kleiner/gleich der 0.5fachen Expression der unbehandelten Kontrolle sind als signifikant differentiell exprimiert eingestuft. […]

The subject of assay [4] is organotypischen Zellkulturen. Briefly: ATP production (ATPLite-M luminescence assay) in organotypic cell cultures. The settings on record: 24 h. From the text: ATP (Adenosintriphosphat) ist die universelle Speicherform für chemische Energie in Zellen. Bei der Abspaltung der distalen Phosphatgruppe entsteht ADP und Pi (anorganisches Phosphat). Diese Reaktion ist stark exergon, d.h. es wird Energie frei. Produziert wird ATP beim zellulären, oxidativen Abbau von Fetten, Kohlehydraten und Proteinen. Es dient als Energielieferant für biochemische Synthesen, für Transportvorgänge (aktiver Transport) und für mechanische Arbeit. Diese Vorgänge sind endergon, d.h. sie laufen nur unter Energiezufuhr ab. Um ihren Stoffwechsel optimal aufrecht zu erhalten, sind Zellen also auf eine ausreichende Versorgung mit ATP angewiesen. Auch dermale Papillenzellen benötigen beispielsweise zur Produktion von Wachstumsfaktoren und damit zur Steuerung des Haarzyklus ATP. Die Proliferation und Differenzierung von Haarschaftkeratinozyten ist ebenfalls an die ATP-Synthese gekoppelt, da für beide Vorgänge die Biosynthese spezifischer Proteine essentielle Voraussetzung ist. Kann durch ein Produkt die ATP-Syntheserate der haarrelevanten Zellen erhöht werden, so steht den Zellen mehr Energie zur Verfügung um Stoffwechselvorgänge und zelluläre Strukturen aufrecht zu erhalten, und um Strukturen zu erneuern, z.B. bei Reparaturprozessen oder dem Neuaufbau von Haaren.
Die ATP-Bestimmungen erfolgten mit Hilfe des ATPLiteTM-M Assays (Packard). […]
For orientation: In ATP-based viability assays light output follows the ATP content of the culture.

For assay [5], the system named is KGF. As to the kind of experiment: Differential gene expression by quantitative RT-PCR in dermal papilla cells: KGF. The settings on record: for Expression KGF, Mittelwert: 24 h, untreated control = 1, spread in brackets.
Description: as §3

In assay [6] the test system is hHa4. As to the kind of experiment: Hair keratin expression by quantitative real-time PCR in organotypic cell cultures: hHa4. As to conditions: 88 µM, 24 h after application.
Description: as §1, §2

In assay [7] the test system is HGF. Briefly: Differential gene expression by quantitative RT-PCR in dermal papilla cells: HGF. The settings on record: for Expression HGF, Mittelwert: 24 h, untreated control = 1, spread in brackets.
Description: as §3

In assay [8] the test system is HGF. Briefly: HGF release into medium (ELISA) from organotypic hair follicle cell cultures. The settings on record: 88 µM. From the text: (§4) Hepatocyte Growth Factor (HGF) und Keratinocyte Growth Factor (KGF) sind wichtige Wachstumsfaktoren, die von der dermalen Papille ausgeschüttet werden, um die Proliferation der Haarschaftkeratinozyten, die für die Synthese der Haarkeratine verantwortlich sind, zu steuern. Sie sind außerdem charakteristische Marker für die Anagenphase, in der auch die Keratinsynthese maximal ist. Darüber hinaus ist zu beachten, dass bei der Haaralterung das Proliferationsvermögen der Haarfollikelzellen abnimmt. Die Ausschüttung von HGF sowie KGF kann mit Hilfe von kommerziell erhältlichen ELISA-Kits quantifiziert werden. Dazu werden organotypische Haarfollikelzellkulturen über 72h mit Dihydroquercetin in der Konzentration 88 µM (entspricht Extrakt der Sibirischen Lerche von 0,003%) inkubiert und die Konzentration der Wachstumsfaktoren im Medium in beschriebener Weise bestimmt. Tabelle 4: Relative Ausschüttung von HGF und KGF in [%] nach Behandlung von organotypischen Haarfollikelzellkulturen im Vergleich zu unbehandelten Kontrollen.

Assay [9] relates to KGF. As to the kind of experiment: KGF release into medium (ELISA) from organotypic hair follicle cell cultures. The settings on record: 88 µM.
Description: as §4

For assay [10], the system named is "Outer Root Sheath" Keratinozyten. As to the kind of experiment: Layer thickness of ORS keratinocytes in organotypic cell culture model (histology). As to conditions: 88 µM, 72 h. From the text:
Physiologische Effekte der Behandlung mit potentiellen Wirkstoffen hinsichtlich einer Verdickung des Haares kann anhand einer Steigerung der Schichtdicke der "Outer Root Sheath" Keratinozyten im organotypischen Zellkulturmodell bestimmt werden. Dazu werden jeweils drei Modelle nach 72 stündiger Inkubation mit Wirkstoff oder mit Referrenzmedium histologisch analysiert: Fixation in 4 % Paraformaldehyd, Färbung mittels Propidiumiodid und mikroskopische Analyse. Im Folgenden wird die Dicke der ORS Keratinozytenschicht des organptypischen Modells randomisiert vermessen und die Ergebnisse werden in Relation zur unbehandelten Kontrolle dargestellt. Tabelle 5: Steigerung der Schichtdicke nach Behandlung der organptypischen Zellkultur mit Dihydroquercetin in der Konzentration von 88 µM (entspricht Extrakt der Sibirischen Lerche von 0,003%) in % im Vergleich zur unbehandelte Probe

Where [11] appears, read: control = 1, spread in brackets.
The mark [12] stands for this setting: dermal papilla cells, 24 h treatment.
The mark [13] stands for this setting: organotypic hair follicle cell cultures, 72 h, untreated control = 100, spread in brackets.

As for `O=C1c2c(O)cc(O)cc2OC(c2ccc(O)c(O)c2)C1O` (stereo not drawn) [Dihydroquercetin, 2-(3.4-dihyrdroxy-phenyl)-3 5 7-trihydroxy-chroman-4-one], in assay [1], the “Keratinexpression hHa3-I (result in words)” value is recorded as “Steigerung der Keratinexpression”. Moreover, the “Haarkeratinexpression hHa3-I” value in [1] (setting [11]) is 4,1 (1,5) x-fache Expression. The “Relative Ausschüttung von KGF, Mittelwert [%]” value in assay [2] (dermal papilla cells, 88 µM) is 176 (16,7) %; in assay [2] (dermal papilla cells, 8,8 µM) it was 173 (17,6) %; in assay [9] (setting [13]), 126 (7) %. Moreover, the “Freisetzung von KGF (result in words)” value in assay [2] (dermal papilla cells, 8,8 and 88 µM) is given as “signifikant erhöhten Freisetzung”; in assay [9] (organotypic hair model), “Aktivierung der Freisetzung”. The “Expression IGFBP3, Mittelwert” value is listed as 0,63(0,13) x-fache Expression in assay [3] (dermal papilla cells, 88 µM) and 0,72 (0,04) x-fache Expression in assay [3] (dermal papilla cells, 8,8 µM). In [3] (setting [12]), the “Genexpression von IGFBP-3 (result in words)” value is “tendenziellen verminderten Expression”. The “ATP-Produktion von organotypischen Zellkulturen in %, Mittelwert (Standardabweichung)” value in assay [4] (88 µM (= 0,003% Extrakt der Sibirischen Lerche), untreated sample = 100) is 138 (10) %. Further, the “Steigerung der ATP-Produktion gegenüber der unbehandelten Kontrolle” value in [4] (organotypic cell cultures, 88 µM) stood at 38%. For the same compound, the “Expression KGF, Mittelwert” value in assay [5] (dermal papilla cells, 88 µM) is 2,18 (0,27) x-fache Expression; in assay [5] (dermal papilla cells, 8,8 µM), 2,71 (0,36) x-fache Expression. The “Genexpression von KGF (result in words)” value in assay [5] (setting [12]) is recorded as “signifikanten Induktion”. In assay [6], the “Keratinexpression hHa4 (result in words)” value is given as “Steigerung der Keratinexpression”. Further, the “Haarkeratinexpression hHa4” value in [6] (setting [11]) was 4,1 (1,6) x-fache Expression. Moreover, the “Expression HGF, Mittelwert” value in assay [7] (dermal papilla cells, 88 µM) is recorded as 3,62(2,11) x-fache Expression; in assay [7] (dermal papilla cells, 8,8 µM) it was 2,90 (1,18) x-fache Expression. Moreover, the “Genexpression von HGF (result in words)” value in assay [7] (setting [12]) is “tendenziell”. In addition, the “Relative Ausschüttung von HGF, Mittelwert [%]” value in assay [8] (setting [13]) is recorded as 142 (15) %. Moreover, the “Freisetzung des Hepatozyten Wachstumsfaktor (HGF) (result in words)” value in assay [8] (organotypic hair model) is “erhöhte Freisetzung”. Also, the “Steigerung der ORS Keratinozytenschichtdicke” value in assay [10] (called tendential) stood at 11%. In addition, in [10] (control = 100, spread in brackets), the “Schichtdicke in % im Vergleich zur unbehandelte Probe, Mittelwert” value was 111 (4) %.
